pEC50: −log10 of the molar value. Read-outs that look alike come from different tables or passages of the source.
Legend:
[1] = molecular target: T1, adenine binding GPCR (Rattus norvegicus, UniProt Q7TN49); assay: FLIPR Ca2+ transient assay, antagonism of 30 nM adenine challenge; assay type: cell-based; conditions: 15 minutes incubation with compound (30 μM to 30 pM), then challenge with 30 nM adenine
T1 construct: The full length reading frame was inserted into the mammalian expression vector pcDNA3; expressed in transfected cells; host or cells: HEK293 cells stably transfected with pLEC/Gqi or pLEC/Gqo
T1 sequence (Q7TN49 1-304): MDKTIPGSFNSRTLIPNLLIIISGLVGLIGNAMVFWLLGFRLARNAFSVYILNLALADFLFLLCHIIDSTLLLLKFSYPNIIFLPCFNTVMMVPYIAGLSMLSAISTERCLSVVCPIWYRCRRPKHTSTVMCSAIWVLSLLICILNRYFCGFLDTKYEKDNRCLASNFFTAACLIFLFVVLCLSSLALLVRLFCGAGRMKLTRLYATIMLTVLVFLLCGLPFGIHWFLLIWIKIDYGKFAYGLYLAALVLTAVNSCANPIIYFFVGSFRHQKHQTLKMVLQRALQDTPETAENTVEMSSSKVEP
Source text: (§1) The full length reading frame was inserted into the mammalian expression vector pcDNA3 (Invitrogen, Carlsbad, Calif., U.S.A.) and the resulting expression construct was transiently transfected with the FuGENE 6 reagent (Roche Molecular Biochemicals, Mannheim, Germany) into HEK293 cells stably transfected (E. Bender, unpublished) with pLEC/Gqi or pLEC/Gqo (Molecular Devices, Sunnyvale, Calif., U.S.A.). The cells were loaded with Fluo-4 (Molecular Probes, Eugene, Oreg., U.S.A.) according to the recommendations of the supplier.
After a 15 minutes incubation at room temperature, the same cells were challenged with 30 nM adenine, to detect antagonistic properties of molecules added in the first round of superfusion.

[2] = molecular target: T2, rat adenine binding GPCR (Rattus norvegicus, UniProt Q7TN49); assay: FLIPR Ca2+ transient assay, agonism, HEK293/Gq chimera cells transiently transfected with rat adenine binding GPCR/pcDNA3; assay type: cell-based; set-up: The full length reading frame was inserted into the mammalian expression vector pcDNA3; expressed in transfected cells; host or cells: HEK293 cells stably transfected with pLEC/Gqi or pLEC/Gqo
T2 sequence (Q7TN49 1-304): T1 sequence (Q7TN49 1-304)
Source text: This assay is based around an instrument called a FLuorescence Imaging Plate Reader ((FLIPR®), Molecular Devices Corporation). In its most common configuration, it excites and measures fluorescence emitted by fluorescein-based dyes. It uses an argon-ion laser to produce high power excitation at 488 nm of a fluorophore, a system of optics to rapidly scan the over the bottom of a 96-/384-well plate and a sensitive, cooled CCD camera to capture the emitted fluorescence. It also contains a 96-/384-well pipetting head allowing the instrument to deliver solutions of test agents into the wells of a 96-/384-well plate. The FLIPR assay is designed to measure fluorescence signals from populations of cells before, during and after addition of compounds, in real time, from all 96-/384-wells simultaneously. […] As described below, calcium transients in cells transfected with adenine binding GPCR were measured using the FLIPR assay in order to measure activation of the receptors by various substrates in order to determine the natural ligand of the receptor.
as §1, with “supplier. […]” for “supplier.”
Using the FLIPR assay as above, calcium transients were measured in both sets of cells with the transients attributable to the novel GPCR measured as the difference between the two transients. Results are illustrated in FIG. 4. […]

[3] = molecular target: T3, adenine binding rat receptor (Rattus norvegicus, UniProt Q7TN49); assay: [35S]GTPγS binding on CHO membranes permanently transfected; assay type: biochemical; conditions: for EC50: read-out: pEC50 (converted); for % stimulation: above basal
T3 construct: expressed in transfected cells; host or cells: CHO cells, transient, lipofectamine PLUS
T3 sequence (Q7TN49 1-304): T1 sequence (Q7TN49 1-304)
Protocol: The lipofectamine PLUS method was also used for permanent transfection of CHO cells with slight modifications. One day after the transfection, the medium was replaced with selection medium which was replaced every 2 to 3 days. The cells were grown till colonies appeared (between day 8 and 10) and split to a 175 cm^2 culture flask for further culture and experiments. Monoclonal cell lines were prepared by limited dilution seeding in 96 well plates.
a) Methods—Determination of [^35S ]GTPγS binding to the G-proteins was carried out according to a modified procedure of Lazareno (Methods Mol. Biol., 83:107-116, 1997). These experiments were performed for a first functional evaluation of the receptor on the level of a membrane preparation.
The assay mixture contained 10 and 35 μg of membrane protein for the transfected and wild type CHO cells, respectively.
For testing agonistic activity, 175 μl of diluted membranes was pre-incubated in the buffer described above together with 25 μl of buffer and 25 μl of varying concentrations of the compound in a total volume of 225 μl. After a 20 minute pre-incubation period at 30° C., 25 μl of [^35S]GTPγS was added to a final concentration of 0.25 nM and the assay mixtures were further incubated for 20 minutes at 30° C. Bound and free [^35S]GTPγS were separated by rapid filtration over an UniFilter™-96, GF/B™ under reduced pressure using Filtermate 196 filtration (Packard Company (Netherlands). The amount of bound radioactivity on the filter unit was determined after drying of the filters and scintillant addition (Microscint-O; Packard Company) by liquid scintillation counting.
Basal [^35S]GTPγS binding was measured in absence of compounds. Stimulation by agonist was calculated as the percentage increase above basal levels. The sigmoid agonist concentration-response curves were analyzed by non-linear regression using the GraphPad Prism program. The different concentration points were run in duplicates and the reported data were retrieved from independent experiments.
The first functional characterization of the monoclonal cell lines was performed in [^35S]GTPγS binding experiments. The maximum stimulation of [^35S] GTPγS binding by adenine for each of the 4 selected clones was much higher ([…]) than the that found in the transient transfections confirming the expected better coupling in permanent cell lines (see table 5).

[4] = system: wild type CHO cells; assay: Intracellular Ca2+ measurements (FLIPR) on wild type CHO cells; assay type: cell-based

| SMILES | antagonistic effect [1] | agonism of nucleoside and nucleotide derivatives of adenine ([2]; at high concentrations (>3.3 μM)) | pEC50 ([3]; 4 selected clones, read-out: mean EC50) | EC50 ([3]; Clone 26 (MP1)) [nM] | EC50 ([3]; Clone 28 (MP9)) [nM] | EC50 ([3]; Clone 29 (MP9)) [nM] | EC50 ([3]; Clone 30 (MP9)) [nM] | % stimulation ([3]; Clone 26 (MP1)) [%] | % stimulation ([3]; Clone 28 (MP9)) [%] | % stimulation ([3]; Clone 29 (MP9)) [%] | % stimulation ([3]; Clone 30 (MP9)) [%] | intracellular Ca2+ response [4] | calcium transients (agonistic activity) ([2]; HEK293/Gaqo cells, 3.3 nM-33 μM, difference to empty-vector cells) |
| --- | --- | --- | --- | --- | --- | --- | --- | --- | --- | --- | --- | --- | --- |
| Nc1ncnc2c1ncn2[C@@H]1O[C@H](COP(=O)(O)O)[C@@H](O)[C@H]1O [AMP] | did not elicit antagonistic effects | weak partial agonism |  |  |  |  |  |  |  |  |  |  |  |
| Nc1ncnc2nc[nH]c12 [Adenine, adenine] |  |  | 7.21 | 64.6 | 49 | 79.4 | 57.5 | 632 | 657 | 527 | 534 | did not show any response | dose responsive calcium transient |
